Converted amounts (≈) assume the structure as drawn. Where two headings read alike, the source gives them in different places.
System: Spodoptera littoralis larvae (2nd and 4th instar)
Assay: Insecticidal bioassay screening (castor leaf dip)
Format: in vivo
Conditions: for LC50 (ppm) at 95% / LC90 (ppm) at 95%: after 72 h of treatment; for Toxicity index %: Diflubenzuron LC50 / compound LC50 x 100; for LC50: foliar
Procedure: In this experiment, castor leaves are immersed in each of the previously prepared concentrations of the components for 10 seconds and then left to dry for 60 minutes. Larvae of the second and fourth instars of each checked strain are prepared with treated leaves in gauze-covered glass containers for 72 hrs. An untreated control is made in which leaves are dipped in triton x-100 and distilled water only. Then the preserved leaves were removed & fresh, untreated leaves were provided for 72 hours. Three replicates (10 larvae each) were checked for each concentration. Daily inspection was carried out for all treatments and mortality percentages were recorded 3 days (72 hours) after treatment. The average mortality percentage was corrected employing Abbott's formula. The corrected mortality rate for each of the previously synthesized compounds is statistically calculated according to Finney (1970). Through this rate, the corresponding concentration test lines (LDP lines) are assessed. Fifty and ninety percent mortality are determined, and the regression values for the checked products were previously evaluated.

[1] = 2nd instar larvae of S. littoralis
[2] = 4th instar larvae of S. littoralis

Compound | LC50 (ppm) at 95% [1] | LC90 (ppm) at 95% [1] [ppm] | Toxicity index % (2nd instar larvae) [%] | LC50 (ppm) at 95% [2] | LC90 (ppm) at 95% [2] [ppm] | Toxicity index % (4th instar larvae) [%] | LC50 (Spodoptera littoralis) [µg/mL] | effect on larval morphology (FIGS. 1A-1B) (S. littoralis larvae versus normal larvae (control)) | activity against Spodoptera littoralis (in words) (compared with reference insecticide Diflubenzuron) | LC50 (against Spodoptera littoralis under laboratory conditions (instar not given), read-out: LC50) [µg/mL]
O=C(NC(=O)c1c(F)cccc1F)Nc1ccc(Cl)cc1 [Diflubenzuron, reference compound] | 45.20 ppm | 520.0 | 100 | 144.05 ppm | 1540.5 | 100 | 45.2 (≈ 145 µM) | – | – | –
CCOC(=O)CS/C(=N\c1cccc(Cl)c1)NC(=O)c1ccc(Cl)cc1Cl [Compound 2, Ethyl {[N′-(3-chlorophenyl)-N-(2,4-dichlorobenzoyl)carbamimidoyl]sulfanyl}acetate] | about 211.4 ppm | – | – | about 472.3 ppm | – | – | – | Morphological malformations | active against Spodoptera littoralis | 211
O=C(NC(=S)Nc1cccc(Cl)c1)c1ccc(Cl)cc1Cl [Compound 1, 2,4-dichloro-N-[(3-chlorophenyl)carbamothioyl]benzamide] | 211.4 ppm | 1913.2 | 21.1 | 472.3 ppm | 4322.7 | 30.5 | – | – | – | –

From US12171233B1, “Ethyl {[N′-(3-chlorophenyl)-N-(2,4-dichlorobenzoyl) carbamimidoyl]sulfanyl}acetate as an eco-friendly insecticidal agent against Spodoptera littoralis (Boisd.)” (priority 2023, dated 2024)
